The text below walks through data of article PMC8165160, “Substrate Specificities and Inhibition Pattern of the Solute Carrier Family 10 Members NTCP, ASBT and SOAT” (Frontiers in Molecular Biosciences, 2021).

In test [1] the target is T1, ASBT (Homo sapiens, UniProt Q12908).
T1 construct: The full-length open reading frames of NTCP, ASBT, and SOAT were cloned; expressed in transfected cells; host or cells: Flp-In T-REX HEK293 (ASBT-HEK293), tetracycline-induced
T1 sequence (Q12908 1-348): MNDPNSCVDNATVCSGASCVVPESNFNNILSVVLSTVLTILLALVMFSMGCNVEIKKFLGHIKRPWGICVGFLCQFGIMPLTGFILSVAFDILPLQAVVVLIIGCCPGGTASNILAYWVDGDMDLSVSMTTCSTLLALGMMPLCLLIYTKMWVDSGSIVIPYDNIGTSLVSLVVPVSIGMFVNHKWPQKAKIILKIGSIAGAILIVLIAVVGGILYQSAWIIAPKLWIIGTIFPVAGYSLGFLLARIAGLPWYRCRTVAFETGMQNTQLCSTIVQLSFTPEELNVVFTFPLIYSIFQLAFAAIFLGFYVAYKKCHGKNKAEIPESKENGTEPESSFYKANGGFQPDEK
Nature of the test: Transport inhibition in ASBT-HEK293 cells. It is filed as cell-based. The note with it: triterpenoid inhibitors, 10 min after 5 min preincubation. As for the experimental part: (§1) Cells were washed three times with PBS and were preincubated with the respective inhibitor in sodium transport buffer for 5 min at 37°C. Uptake was initiated by adding the respective radiolabeled substrate to the well and incubating for a fixed time as indicated in the figures at 37°C. Transport was terminated by removing the transport buffer and washing five-times with ice-cold PBS. Cell monolayers were lysed in 1 N NaOH with 0.1% SDS and the cell-associated radioactivity and protein content was determined as described above. For uptake inhibition with the myr-preS1 peptide the sodium transport buffer contained additionally MEM-amino acid solution (ThermoFisher) at 1:50 dilution.
(§2) All transport or inhibition graphs were generated with GraphPad Prism 6.0 (GraphPad). Determination of IC50 values was done by nonlinear regression analysis using the equation log (inhibitor) vs. response settings. If not stated otherwise in the legends all data represent means ± SD of at least triplicate determinations of representative experiments.
(§3) FIGURE 3 Inhibition of NTCP, ASBT, and SOAT with substrate inhibitors. Transport of [^3H]TC, [^3H]TLC, and [^3H]DHEAS was analyzed in NTCP-HEK293, ASBT-HEK293, and SOAT-HEK293 cells in the presence of the substrate inhibitors TC, TLC, and DHEAS at increasing concentrations ranging from 100 nM till 1000 µM. After 5 min of preincubation with the respective inhibitory compound, 200 nM [^3H]TLC, [^3H]TC or [^3H]DHEAS were added for additional 1 min and the cell lysates were analyzed by liquid scintillation counting. Unspecific uptake of HEK293-FlpIn cells was set to 0%. Carrier-specific uptake without inhibitor was set to 100%.
(§4) Transport of [^3H]TC, [^3H]TLC, and [^3H]DHEAS was analyzed in NTCP-HEK293, ASBT-HEK293, and SOAT-HEK293 cells in the presence of different supposed non-substrate triterpenoid inhibitors as indicated at increasing concentrations ranging from 100 nM till 1000 µM. After 5 min of preincubation with the respective inhibitory compound, 1 µM [^3H]TLC, [^3H]TC or [^3H]DHEAS were added for additional 10 min at 37°C and the cell lysates were analyzed by liquid scintillation counting. Experiments performed without inhibitor were set to 100%. Means of negative controls were subtracted to calculate net transport rates (expressed as percentage of control). Data represent means ± SD of quadruplicate determinations of representative experiments.

Test [2] has as its target T2, SOAT (Homo sapiens, UniProt Q3KNW5).
T2 construct: The full-length open reading frames of NTCP, ASBT, and SOAT were cloned; expressed in transfected cells; host or cells: Flp-In T-REX HEK293 (SOAT-HEK293), tetracycline-induced
T2 sequence (Q3KNW5 1-377): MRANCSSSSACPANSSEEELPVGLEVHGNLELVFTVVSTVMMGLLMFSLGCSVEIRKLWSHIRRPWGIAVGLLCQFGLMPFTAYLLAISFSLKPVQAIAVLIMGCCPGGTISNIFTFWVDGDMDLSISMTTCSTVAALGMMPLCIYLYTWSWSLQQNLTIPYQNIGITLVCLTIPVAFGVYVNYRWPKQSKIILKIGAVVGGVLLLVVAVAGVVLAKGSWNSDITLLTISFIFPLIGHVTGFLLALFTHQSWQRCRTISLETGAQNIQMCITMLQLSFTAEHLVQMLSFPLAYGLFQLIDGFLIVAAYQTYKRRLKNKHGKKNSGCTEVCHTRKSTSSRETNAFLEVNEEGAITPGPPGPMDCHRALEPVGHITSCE
Nature of the test: Transport inhibition in SOAT-HEK293 cells. The conditions noted are these: triterpenoid inhibitors, 10 min after 5 min preincubation. Type of test: cell-based. As for the experimental part: as §1, §2, §3, §4

In test [3] the test system is HDV. The note with it: in vitro; ref Kirstgen et al., 2020; cited from earlier work.
In test [4] the target is T3, NTCP (Homo sapiens, UniProt Q14973).
T3 sequence (Q14973 1-349): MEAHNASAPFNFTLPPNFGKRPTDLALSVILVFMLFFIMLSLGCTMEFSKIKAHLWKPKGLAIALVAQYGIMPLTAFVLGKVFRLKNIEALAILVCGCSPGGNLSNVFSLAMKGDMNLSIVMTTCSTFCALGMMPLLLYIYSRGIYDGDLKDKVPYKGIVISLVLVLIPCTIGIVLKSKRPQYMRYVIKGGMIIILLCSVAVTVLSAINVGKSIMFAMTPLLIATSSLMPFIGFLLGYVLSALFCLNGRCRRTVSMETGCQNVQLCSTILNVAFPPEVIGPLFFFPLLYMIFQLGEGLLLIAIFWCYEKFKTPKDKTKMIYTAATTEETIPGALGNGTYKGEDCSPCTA
Nature of the test: Transport inhibition in NTCP-HEK293 cells.

Test [5] has as its target T3, NTCP. Nature of the test: Substrate screening: sodium-dependent uptake of radiolabeled compounds in NTCP-HEK293 cells. Type of test: cell-based. Also noted: The full-length open reading frames of NTCP, ASBT, and SOAT were cloned; expressed in transfected cells; host or cells: Flp-In T-REX HEK293 (NTCP-HEK293), tetracycline-induced. The conditions noted are these: radiolabeled steroid compounds 200 nM, 10 min, NTCP-HEK293, vs sodium-free control. Here is the method:
(§5) Stably SLC10 transporter transfected NTCP-HEK293, ASBT-HEK293, SOAT-HEK293 cells and the HEK293-FlpIn maternal cell line were seeded on 24-well plates (if not stated otherwise for individual assays). Well plates were coated with poly-D-lysine prior to seeding of 125,000 cells per well. Cells were grown with 1 ml of standard medium per well with or without tetracycline ([…]) for 72 h to induce carrier expression before respective assays were started. HEK293-FlpIn cells were cultivated with standard medium and served as control.
(§6) Uptake experiments were initiated by replacing the preincubation buffer by 500 μL transport buffer containing the radiolabeled test compound and were performed at 37°C. Transport was terminated by removing the transport buffer and washing five-times with ice-cold PBS. Cell monolayers were lysed in 1 N NaOH with 0.1% SDS and the cell-associated radioactivity was determined by liquid scintillation counting.
(§7) FIGURE 1 Comparative substrate screening for bile acids and sulfated steroids in NTCP-, ASBT-, and SOAT-HEK293 cells. Transport assays were performed with the indicated substrates in NTCP-HEK293, ABST-HEK293, SOAT-HEK293, and HEK293-FlpIn cells. Cells were washed and equilibrated with Na^+-containing transport buffer (filled bars) or with Na^+-free transport buffer (open bars) at 37°C. For uptake, cells were incubated with radiolabeled steroid compounds at a final concentration of 200 nM in Na^+-containing or Na^+-free transport buffer for 10 min. Radiolabeled bile acids were used at 1 µM concentrations and transport was analyzed over 30 min. HEK293-FlpIn cells served as additional controls. After the indicated time intervals, cells were washed with ice-cold PBS, lysed and subjected to liquid scintillation counting. […] 3-OH, trihydroxylated BAs; 2-OH, dihydroxylated BAs; 1-OH, monohydroxylated BAs.

Test [6] addresses T3, NTCP. Nature of the test: Transport kinetics (concentration-dependent uptake) in NTCP-HEK293 cells. It is filed as cell-based. More on the design: The full-length open reading frames of NTCP, ASBT, and SOAT were cloned; expressed in transfected cells; host or cells: Flp-In T-REX HEK293 (NTCP-HEK293), tetracycline-induced. The conditions noted are these: uptake via NTCP, 1 min, 37°C. Here is the method:
as §6
FIGURE 2 NTCP, ASBT, and SOAT transport kinetics. Concentration-dependent uptake was analyzed in NTCP-HEK293, ASBT-HEK293, and SOAT-HEK293 cells for the indicated substrates at increasing substrate concentrations. Stably transfected HEK293 cells were pretreated with 1 μg/ml tetracycline to induce carrier expression. HEK293-FlpIn cells were used as control. Uptake was analyzed for 1 min at 37°C. Afterward, the medium was removed and each cell monolayer was washed and processed to determine the protein content and cell-associated radioactivity. Specific uptake was calculated by subtracting non-specific uptake of the HEK293-FlpIn control cells (open squares) from uptake into carrier-overexpressing HEK293 cells (filled squares) and is shown by broken lines. The values represent means ± SD of duplicate experiments, each with triplicate determinations (n = 6).

In test [7] the target is T2, SOAT. Nature of the test: Substrate screening: sodium-dependent uptake of radiolabeled compounds in SOAT-HEK293 cells. Type of test: cell-based. The note with it: radiolabeled steroid compounds 200 nM, 10 min, SOAT-HEK293, vs sodium-free control. Here is the method: as §5, §6, §7
For test [8], the target named is T2, SOAT. More on the design: method as in Geyer et al. (2007). The conditions noted are these: uptake via SOAT, same SOAT-HEK293 cell line; ref Geyer et al. (2007); cited from earlier work.
Where [9] appears, read: 1 µM [3H]TC, read-out: ASBT IC50, substrate [3H]TC.
[10] abbreviates: 1 µM [3H]TLC, read-out: ASBT IC50, substrate [3H]TLC.
The mark [11] stands for this setting: 1 µM [3H]DHEAS, read-out: SOAT IC50, substrate [3H]DHEAS.
Where [12] appears, read: 1 µM [3H]TLC, read-out: SOAT IC50, substrate [3H]TLC.

Read-outs that look alike come from different tables or passages of the source.

As to `C=C(C)[C@@H]1CC[C@]2(C(=O)O)CC[C@]3(C)[C@H](CC[C@@H]4[C@@]5(C)CC[C@H](O)C(C)(C)[C@@H]5CC[C@]43C)[C@@H]12` [Betulinic acid], the IC50 (in general, the concentration that inhibits the measured activity by half) in test [1] (setting [9]) is more than 1000 µM; in test [1] (setting [10]), 193 µM; in test [2] (setting [11]), 1.2 µM; in test [2] (setting [12]) it was 9.5 µM. Besides, the “anti-HDV activity in vitro” value in test [3] is listed as “anti-HDV activity”.

In the case of `C=C(C)[C@@H]1CC[C@]2(C)CC[C@]3(C)[C@H](CC[C@@H]4[C@@]5(C)CCC(=O)C(C)(C)[C@@H]5CC[C@]43C)[C@@H]12` [Lupenone], the IC50 was more than 1000 µM in test [1] (setting [9]); more than 1000 µM in test [1] (setting [10]); 665 µM in test [2] (setting [11]); 122 µM in test [2] (setting [12]); more than 1000 µM in test [4] (NTCP IC50, substrate [3H]DHEAS); 240 µM in test [4] (NTCP IC50, substrate [3H]TC, triterpenoid inhibitors, 1 µM [3H]TC, 10 min after 5 min preincubation). The compound further had an IC50 in test [4] (NTCP IC50, substrate [3H]TLC, triterpenoid inhibitors, 1 µM [3H]TLC, 10 min after 5 min preincubation) of 11.8 µM. Besides, in test [3], the “anti-HDV activity in vitro” value is recorded as “anti-HDV activity”.

For the compound Pregnenolone sulfate [PREGS], in test [5], the “Transport activity grading NTCP (mean uptake)” value was “+++ (“+++” for values above 100 pmol/mg protein/10 min for sulfated steroid hormones)”. Moreover, the entries for the “Apparent K m” value in test [6] and in test [8] were 8.8 ± 2.1 µM and 11.3 ± 3.0 µM, respectively. Besides, the values for the V max in test [6] and in test [8] were 1036 ± 69.1 pmol/mg protein/min and 2168 ± 134 pmol/mg protein/min, respectively. In test [7], the “Transport activity grading SOAT (mean uptake)” value is recorded as “+++ (“+++” for values above 100 pmol/mg protein/10 min for sulfated steroid hormones)”.
